Earlier results as cited in US20100151008A1, “Preparations and Methods for Textile and or Fiber Surface Finishing, Surface Finished Articles Prepared Thereby, and Uses Therefor” (Cognis IP Management GmbH, priority 2003, published 2010).

solubility in ether, benzene and petroleum ether (ether, benzene and petroleum ether): soluble | solubility in water (water): virtually insoluble
SMILES: CC(C)CCC[C@@H](C)[C@H]1CC[C@H]2[C@@H]3CC=C4C[C@@H](O)CC[C@]4(C)[C@H]3CC[C@]12C [cholesterol, 5-cholesten-3b-ol]
solubility in alcohol (alcohol): only sparingly when cold, but more readily after heating
